Patent US4464385A, “Treatment of diabetic complications with hydantoins” (Alcon Laboratories, Inc., priority 1982, dated 1984)
“Also recorded” adds a separate entry of the source.

Assays:
[1] = molecular target: T1, aldose reductase enzyme obtained from rat lens (Rattus norvegicus, UniProt P07943); test: Inhibition of partially purified aldose reductase from rat lens; type: biochemical; details: read-out: IC50 (concentration of drug that inhibits 50% of the enzyme activity)
T1 construct: partially purified aldose reductase enzyme obtained from rat lens; from tissue; host or cells: rat lens
Excerpt: In every case the substrate employed was partially purified aldose reductase enzyme obtained from rat lens or human placenta.

[2] = tested on: cataracts in rats; test: Prevention or retardation of cataracts in galactose-fed rats; type: in vivo, rat; details: for suppression of the formation of nuclear cataracts: 30 days; for % of Total Eyes, + (vacuole) / % of Total Eyes, - (Normal) / % of Total Eyes, N (nuclear cataract) / % of Total Eyes, S (snowflake) / Number of Eyes Observed, + (vacuole) / Number of Eyes Observed, - (Normal) / Number of Eyes Observed, N (nuclear cataract) / Number of Eyes Observed, S (snowflake) / Number of Eyes Observed, ±: 30% galactose diet, A,C,E 0.0025%, B,D 0.01%
How it was run: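 Rats given test compound mixed into diet (by % of total feed weight; 0.01% designed to supply 20 mg/kg/day) ad libitum for thirty days after a two-day chow acclimatization, twelve animals per treatment. Eyes examined by handheld ophthalmoscope and/or penlight and each eye graded.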

Question: With “dl-spiro-(6-methylthio-chroman-4,4'-imidazolidine)-2',5'-dione” as the substance, how does the IC50 [1] read?
Answer: 270 nM

Question: What about the “suppression of the formation of nuclear cataracts” value ([2]; 0.0025% in diet) of the same substance?
Answer: greater than 80%

Question: And the “time of suppression, time to vacuole formation” value ([2]; 0.01% in diet)?
Answer: 13.5 days

Question: And the “time to snowflake / retardation of cataract, versus Sarges 0.0025% d-6-fluoro” value ([2]; 0.01% in diet)?
Answer: not significantly different from the Sarges 0.0025% d-6-fluoro control; also recorded: retard the progress of cataract formation slightly better than the Sarges control; also recorded: surpassed the positive control

Question: What about the “time to vacuole formation, versus Sarges 0.0025% d-6-fluoro” value ([2]; 0.01% in diet) of the same substance?
Answer: statistically lower (p<0.05) than the Sarges standard

Question: And the “suppression of the formation of nuclear cataracts” value ([2]; 0.01% in diet)?
Answer: 100%

Question: And the “% of Total Eyes, + (vacuole)” value ([2]; Study Day 2)?
Answer: 0%

Question: What about the “% of Total Eyes, - (Normal)” value ([2]; Study Day 2) of the same substance?
Answer: 100.0%

Question: What about the “% of Total Eyes, N (nuclear cataract)” value ([2]; Study Day 2) of the same substance?
Answer: 0%

Question: And the “% of Total Eyes, S (snowflake)” value ([2]; Study Day 2)?
Answer: 0%

Question: What about the “Number of Eyes Observed, + (vacuole)” value ([2]; Study Day 2) of the same substance?
Answer: 0 eyes

Question: What about the “Number of Eyes Observed, - (Normal)” value ([2]; Study Day 2) of the same substance?
Answer: 24 eyes

Question: And the “Number of Eyes Observed, N (nuclear cataract)” value (from here on “Number of Eyes Observed, N”) ([2]; Study Day 2)?
Answer: 0 eyes

Question: And the “Number of Eyes Observed, S (snowflake)” value ([2]; Study Day 2)?
Answer: 0 eyes

Question: And the “Number of Eyes Observed, ±” value ([2]; Study Day 2)?
Answer: 0 eyes

Question: And the “% of Total Eyes, + (vacuole)” value ([2]; Study Day 3)?
Answer: 0%

Question: And the “% of Total Eyes, - (Normal)” value ([2]; Study Day 3)?
Answer: 100.0%

Question: What about the “% of Total Eyes, N (nuclear cataract)” value ([2]; Study Day 3) of the same substance?
Answer: 0%

Question: And the “% of Total Eyes, S (snowflake)” value ([2]; Study Day 3)?
Answer: 0%

Question: What about the “Number of Eyes Observed, + (vacuole)” value ([2]; Study Day 3) of the same substance?
Answer: 0 eyes

Question: What about the “Number of Eyes Observed, - (Normal)” value ([2]; Study Day 3) of the same substance?
Answer: 24 eyes

Question: What about the “Number of Eyes Observed, N” value ([2]; Study Day 3) of the same substance?
Answer: 0 eyes

Question: What about the “Number of Eyes Observed, S (snowflake)” value ([2]; Study Day 3) of the same substance?
Answer: 0 eyes

Question: What about the “Number of Eyes Observed, ±” value ([2]; Study Day 3) of the same substance?
Answer: 0 eyes

Question: And the “% of Total Eyes, + (vacuole)” value ([2]; Study Day 4)?
Answer: 0%

Question: And the “% of Total Eyes, - (Normal)” value ([2]; Study Day 4)?
Answer: 16.7%

Question: What about the “% of Total Eyes, N (nuclear cataract)” value ([2]; Study Day 4) of the same substance?
Answer: 0%

Question: What about the “% of Total Eyes, S (snowflake)” value ([2]; Study Day 4) of the same substance?
Answer: 0%

Question: What about the “Number of Eyes Observed, + (vacuole)” value ([2]; Study Day 4) of the same substance?
Answer: 0 eyes

Question: And the “Number of Eyes Observed, - (Normal)” value ([2]; Study Day 4)?
Answer: 4 eyes

Question: What about the “Number of Eyes Observed, N” value ([2]; Study Day 4) of the same substance?
Answer: 0 eyes

Question: What about the “Number of Eyes Observed, S (snowflake)” value ([2]; Study Day 4) of the same substance?
Answer: 0 eyes

Question: And the “Number of Eyes Observed, ±” value ([2]; Study Day 4)?
Answer: 20 eyes

Question: And the “% of Total Eyes, + (vacuole)” value ([2]; Study Day 5)?
Answer: 75.0%

Question: What about the “% of Total Eyes, - (Normal)” value ([2]; Study Day 5) of the same substance?
Answer: 0%

Question: What about the “% of Total Eyes, N (nuclear cataract)” value ([2]; Study Day 5) of the same substance?
Answer: 0%

Question: What about the “% of Total Eyes, S (snowflake)” value ([2]; Study Day 5) of the same substance?
Answer: 0%

Question: And the “Number of Eyes Observed, + (vacuole)” value ([2]; Study Day 5)?
Answer: 18 eyes

Question: What about the “Number of Eyes Observed, - (Normal)” value ([2]; Study Day 5) of the same substance?
Answer: 0 eyes

Question: And the “Number of Eyes Observed, N” value ([2]; Study Day 5)?
Answer: 0 eyes

Question: What about the “Number of Eyes Observed, S (snowflake)” value ([2]; Study Day 5) of the same substance?
Answer: 0 eyes

Question: And the “Number of Eyes Observed, ±” value ([2]; Study Day 5)?
Answer: 6 eyes

Question: What about the “% of Total Eyes, + (vacuole)” value ([2]; Study Day 6) of the same substance?
Answer: 83.3%

Question: What about the “% of Total Eyes, - (Normal)” value ([2]; Study Day 6) of the same substance?
Answer: 0%

Question: What about the “% of Total Eyes, N (nuclear cataract)” value ([2]; Study Day 6) of the same substance?
Answer: 0%

Question: And the “% of Total Eyes, S (snowflake)” value ([2]; Study Day 6)?
Answer: 0%

Question: And the “Number of Eyes Observed, + (vacuole)” value ([2]; Study Day 6)?
Answer: 20 eyes

Question: What about the “Number of Eyes Observed, - (Normal)” value ([2]; Study Day 6) of the same substance?
Answer: 0 eyes

Question: And the “Number of Eyes Observed, N” value ([2]; Study Day 6)?
Answer: 0 eyes

Question: And the “Number of Eyes Observed, S (snowflake)” value ([2]; Study Day 6)?
Answer: 0 eyes

Question: What about the “Number of Eyes Observed, ±” value ([2]; Study Day 6) of the same substance?
Answer: 4 eyes

Question: And the “% of Total Eyes, + (vacuole)” value ([2]; Study Day 8)?
Answer: 100.0%

Question: What about the “% of Total Eyes, - (Normal)” value ([2]; Study Day 8) of the same substance?
Answer: 0%

Question: And the “% of Total Eyes, N (nuclear cataract)” value ([2]; Study Day 8)?
Answer: 0%

Question: What about the “% of Total Eyes, S (snowflake)” value ([2]; Study Day 8) of the same substance?
Answer: 0%

Question: What about the “Number of Eyes Observed, + (vacuole)” value ([2]; Study Day 8) of the same substance?
Answer: 24 eyes

Question: What about the “Number of Eyes Observed, - (Normal)” value ([2]; Study Day 8) of the same substance?
Answer: 0 eyes

Question: And the “Number of Eyes Observed, N” value ([2]; Study Day 8)?
Answer: 0 eyes

Question: What about the “Number of Eyes Observed, S (snowflake)” value ([2]; Study Day 8) of the same substance?
Answer: 0 eyes

Question: What about the “Number of Eyes Observed, ±” value ([2]; Study Day 8) of the same substance?
Answer: 0 eyes

Question: And the “% of Total Eyes, + (vacuole)” value ([2]; Study Day 10)?
Answer: 79.2%

Question: And the “% of Total Eyes, - (Normal)” value ([2]; Study Day 10)?
Answer: 0%

Question: What about the “% of Total Eyes, N (nuclear cataract)” value ([2]; Study Day 10) of the same substance?
Answer: 0%

Question: What about the “% of Total Eyes, S (snowflake)” value ([2]; Study Day 10) of the same substance?
Answer: 20.8%

Question: What about the “Number of Eyes Observed, + (vacuole)” value ([2]; Study Day 10) of the same substance?
Answer: 19 eyes

Question: What about the “Number of Eyes Observed, - (Normal)” value ([2]; Study Day 10) of the same substance?
Answer: 0 eyes

Question: What about the “Number of Eyes Observed, N” value ([2]; Study Day 10) of the same substance?
Answer: 0 eyes

Question: And the “Number of Eyes Observed, S (snowflake)” value ([2]; Study Day 10)?
Answer: 5 eyes

Question: And the “Number of Eyes Observed, ±” value ([2]; Study Day 10)?
Answer: 0 eyes

Question: What about the “% of Total Eyes, + (vacuole)” value ([2]; Study Day 12) of the same substance?
Answer: 58.4%

Question: What about the “% of Total Eyes, - (Normal)” value ([2]; Study Day 12) of the same substance?
Answer: 0%

Question: What about the “% of Total Eyes, N (nuclear cataract)” value ([2]; Study Day 12) of the same substance?
Answer: 0%

Question: And the “% of Total Eyes, S (snowflake)” value ([2]; Study Day 12)?
Answer: 41.6%

Question: What about the “Number of Eyes Observed, + (vacuole)” value ([2]; Study Day 12) of the same substance?
Answer: 14 eyes

Question: And the “Number of Eyes Observed, - (Normal)” value ([2]; Study Day 12)?
Answer: 0 eyes

Question: What about the “Number of Eyes Observed, N” value ([2]; Study Day 12) of the same substance?
Answer: 0 eyes

Question: And the “Number of Eyes Observed, S (snowflake)” value ([2]; Study Day 12)?
Answer: 10 eyes

Question: What about the “Number of Eyes Observed, ±” value ([2]; Study Day 12) of the same substance?
Answer: 0 eyes

Question: What about the “% of Total Eyes, + (vacuole)” value ([2]; Study Day 14) of the same substance?
Answer: 41.6%

Question: What about the “% of Total Eyes, - (Normal)” value ([2]; Study Day 14) of the same substance?
Answer: 0%
